# Assay results published in ChEMBL document CHEMBL3102837, “Synthesis of novel indenoquinoxaline derivatives as potent α-glucosidase inhibitors” (Bioorg Med Chem, 2014).
# The source made the active and inactive calls. The rule behind the calls is not given here.
# Legend:
# [1] = target: Alpha-glucosidase MAL12 (Saccharomyces cerevisiae S288c, UniProt P53341); experiment: Inhibition of Saccharomyces cerevisiae alpha-glucosidase using p-nitrophenyl-alpha-D-glucopyranoside as substrate preincubated for 10 mins measured after 30 mins
# Alpha-glucosidase MAL12, sequence (P53341 whole entry): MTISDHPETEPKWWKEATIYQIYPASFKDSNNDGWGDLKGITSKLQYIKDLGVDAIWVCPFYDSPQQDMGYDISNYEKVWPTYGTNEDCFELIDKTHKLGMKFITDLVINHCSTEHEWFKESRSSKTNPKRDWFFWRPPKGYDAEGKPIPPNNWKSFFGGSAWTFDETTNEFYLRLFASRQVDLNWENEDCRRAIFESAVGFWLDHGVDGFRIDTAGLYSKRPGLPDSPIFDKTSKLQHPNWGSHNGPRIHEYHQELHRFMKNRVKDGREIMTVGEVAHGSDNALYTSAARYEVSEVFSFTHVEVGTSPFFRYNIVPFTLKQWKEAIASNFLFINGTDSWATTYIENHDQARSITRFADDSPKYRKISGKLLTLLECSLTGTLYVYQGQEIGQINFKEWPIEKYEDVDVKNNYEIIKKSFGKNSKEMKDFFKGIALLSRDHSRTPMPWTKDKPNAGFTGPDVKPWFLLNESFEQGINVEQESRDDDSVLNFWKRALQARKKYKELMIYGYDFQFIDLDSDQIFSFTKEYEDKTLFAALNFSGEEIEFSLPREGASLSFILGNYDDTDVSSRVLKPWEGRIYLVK
# [2] = target: T1, Tyrosinase (Homo sapiens) (UniProt P14679); experiment: Inhibition of tyrosinase (unknown origin)
# T1 sequence (whole entry): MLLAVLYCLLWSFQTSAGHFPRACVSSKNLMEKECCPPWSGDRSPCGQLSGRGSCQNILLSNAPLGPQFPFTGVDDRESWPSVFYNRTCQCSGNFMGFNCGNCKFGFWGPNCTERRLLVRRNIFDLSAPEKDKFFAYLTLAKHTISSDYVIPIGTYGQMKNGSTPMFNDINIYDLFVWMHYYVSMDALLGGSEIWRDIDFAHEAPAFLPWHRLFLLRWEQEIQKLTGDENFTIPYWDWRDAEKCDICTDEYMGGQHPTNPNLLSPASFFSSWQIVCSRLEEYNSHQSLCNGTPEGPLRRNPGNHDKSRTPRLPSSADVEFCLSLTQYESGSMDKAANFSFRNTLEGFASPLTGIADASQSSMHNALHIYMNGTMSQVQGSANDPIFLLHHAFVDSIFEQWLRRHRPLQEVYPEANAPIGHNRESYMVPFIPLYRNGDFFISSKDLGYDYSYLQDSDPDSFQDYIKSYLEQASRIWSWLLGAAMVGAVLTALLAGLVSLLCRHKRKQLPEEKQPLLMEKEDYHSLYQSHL
# [3] = organism: Homo sapiens; experiment: Inhibition of alpha-chymotrypsin (unknown origin)
Structure (SMILES),IC50 ([1]; read-out: IC50),inhibition [2],inhibition [3],IC50 [1]
O=C1c2ccccc2-c2nc3ccccc3nc21,62.5 µM,–,–,–
O=C(N/N=C1/c2ccccc2-c2nc3ccccc3nc21)c1ccccc1Br,23.1 µM,inactive,Active,–
c1ccc2c(c1)/C(=N/N=C1\c3ccccc3-c3nc4ccccc4nc31)c1nc3ccccc3nc1-2,18.2 µM,inactive,Active,–
O=C(N/N=C1/c2ccccc2-c2nc3ccccc3nc21)c1cccc(Cl)c1,105 µM,inactive,Active,–
O=C(N/N=C1/c2ccccc2-c2nc3ccccc3nc21)c1ccc(Br)cc1,22.7 µM,inactive,Active,–
O=C(N/N=C1/c2ccccc2-c2nc3ccccc3nc21)c1ccccc1Cl,25.9 µM,inactive,Active,–
COc1ccc(C(=O)N/N=C2/c3ccccc3-c3nc4ccccc4nc32)cc1O,–,inactive,Active,Not Active
O=C(N/N=C1/c2ccccc2-c2nc3ccccc3nc21)c1ccccc1[N+](=O)[O-],23.5 µM,inactive,Active,–
O=C(N/N=C1/c2ccccc2-c2nc3ccccc3nc21)c1ccc(F)cc1,53.4 µM,inactive,Active,–
O=C(N/N=C1/c2ccccc2-c2nc3ccccc3nc21)c1ccc(O)cc1,102 µM,inactive,Active,–
O=C(N/N=C1/c2ccccc2-c2nc3ccccc3nc21)c1ccccc1,–,inactive,Active,Not Active
O=C(N/N=C1/c2ccccc2-c2nc3ccccc3nc21)c1ccc(Cl)cc1,99.9 µM,inactive,Active,–
Cc1ccc(C(=O)N/N=C2/c3ccccc3-c3nc4ccccc4nc32)cc1,> 500 µM,inactive,Active,–
O=C(N/N=C1/c2ccccc2-c2nc3ccccc3nc21)c1cccc(Br)c1,113 µM,inactive,Active,–
O=C(N/N=C1/c2ccccc2-c2nc3ccccc3nc21)c1cccc(I)c1,77.5 µM,inactive,Active,–
O=C(N/N=C1/c2ccccc2-c2nc3ccccc3nc21)c1cccc(F)c1,90.9 µM,inactive,Active,–
Nc1ccccc1C(=O)N/N=C1/c2ccccc2-c2nc3ccccc3nc21,62.3 µM,inactive,Active,–
O=C(N/N=C1/c2ccccc2-c2nc3ccccc3nc21)c1ccc(I)cc1,37.7 µM,inactive,Active,–
O=C(N/N=C1/c2ccccc2-c2nc3ccccc3nc21)c1ccc([N+](=O)[O-])cc1,29.5 µM,inactive,Active,–
